Experiment [1] has as its target CMP-KDO lipid A transferase (KLT) (Salmonella typhimurium, UniProt Q8ZL49). Briefly: KLT Assay (incorporation of [14-C]-labelled CMP-KDO into acid-insoluble product; CMP-KDO generated in situ by added CKS). The experiment is classed as biochemical. The note with it: percent of a control without inhibitor, read-out: Percentage of inhibition of KLT. How it is done:
(§1) Potential inhibitors were tested for inhibitory action against two key enzymes involved in the biosynthesis of bacterial LPS.
CMP-KDO lipid A transferase (KLT) which transfers CMP-KDO to an intermediate in the biosynthesis of LPS known as lipid A precursor [drawing 21]
The KLT enzyme was purified essentially by the method of Osborne (J.Biol.Chem. 252 (1977) 4895-4903). KLT activity was determined by monitoring the incorporation of [14-C]-labelled CMP-KDO into acid- insoluble product. The radio labelled CMP-KDO was generated in situ from CTP and [14-C]-KDO by the action of added CKS enzyme. The incubation mixture contained CKS enzyme, KLT enzyme, 110 mM Tris buffer pH 8.0, 10.6 mM NaCl, 0.5 mM CTP, 0.4%, Alfonic 1012-6 (Trade name), 0.16 mM [14-c] KDO and lipid A precursor. The final reaction volume was 150 µl. The mixture was incubated at 25°C for 15 min., when 50 µl was transferred to a filter paper circle (Munktell No. 5,24 mm.) and then washed copiously with 10% TCA. The radioactivity adsorbed on the paper circle, which represents radiolabelled KDO bound to precursor was determined using liquid scintillation counting.
(§2) Inhibition of CKS and KLT enzymes by compound I is given in Table I. The inhibitory action is expressed in percent of a control without inhibitor run simultaneously.

The target of a further experiment is T1, CMP-KDO synthetase (CKS) (Escherichia coli, UniProt P04951).
T1 construct: made in house
Briefly: CKS Assay (enzyme inhibition). The experiment is classed as biochemical. The note with it: percent of a control without inhibitor, read-out: Percentage of inhibition of CKS. How it is done:
as §1
I. CMP-KDO synthetase (CKS) which catalyses the reaction [drawing 20]
The CKS enzyme was prepared essentially as described by Osborne [J-.Biol.Chem. […]] and the enzyme assayed by the method of Ghalambor and Heath (J.Biol.Chem. 241 (1966) 3216-3221).
as §2

What is called inhibition is the share of the control response that was lost under treatment.

Sequence of CMP-KDO lipid A transferase (KLT) (Q8ZL49 entry or part of it): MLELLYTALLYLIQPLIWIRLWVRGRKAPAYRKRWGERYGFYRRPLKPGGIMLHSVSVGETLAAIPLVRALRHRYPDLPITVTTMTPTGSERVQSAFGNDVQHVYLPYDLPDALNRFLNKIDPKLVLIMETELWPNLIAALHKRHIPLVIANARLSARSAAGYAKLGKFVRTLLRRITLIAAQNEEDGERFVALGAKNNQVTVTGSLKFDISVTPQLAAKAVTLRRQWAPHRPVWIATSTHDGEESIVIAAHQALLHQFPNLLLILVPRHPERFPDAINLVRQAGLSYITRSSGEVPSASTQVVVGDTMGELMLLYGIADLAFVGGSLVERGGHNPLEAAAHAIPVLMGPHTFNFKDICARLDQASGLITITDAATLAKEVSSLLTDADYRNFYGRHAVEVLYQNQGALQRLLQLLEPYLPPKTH
T1 sequence (P04951 whole entry): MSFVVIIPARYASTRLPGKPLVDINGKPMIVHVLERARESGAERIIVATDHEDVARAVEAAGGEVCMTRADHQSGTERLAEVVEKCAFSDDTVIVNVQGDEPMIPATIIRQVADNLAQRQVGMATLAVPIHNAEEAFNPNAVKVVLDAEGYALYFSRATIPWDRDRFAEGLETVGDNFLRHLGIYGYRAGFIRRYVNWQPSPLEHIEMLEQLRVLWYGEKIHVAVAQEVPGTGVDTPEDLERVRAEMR

Take `O=C(O)[C@@H]1C[C@@H](O)[C@@H](O)[C@@H]([C@H](O)CO)O1` [compound I, ammonium 2,6-anhydro-3-deoxy-D- -glycero-D -talo-octonate]: the inhibition at 0.625 µM in experiment [1] (0.000625 mM compound) stood at 5%. In addition, the inhibition at 2.5 µM in experiment [1] (0.0025 mM compound) was found to be 24%; at CMP-KDO synthetase (CKS) (0.0025 mM compound), 8%. Besides, the results for the inhibition at 10 µM (in experiment [1] (0.01 mM compound); on CMP-KDO synthetase (CKS) (0.01 mM compound)) were 57% and 36%, respectively. Further, the results for the inhibition at 40 µM (in experiment [1] (0.04 mM compound); at CMP-KDO synthetase (CKS) (0.04 mM compound)) were 81% and 68%, respectively. Moreover, the inhibition at 160 µM in experiment [1] (0.16 mM compound) turned out to be 89%; at CMP-KDO synthetase (CKS) (0.16 mM compound), 90%. The inhibition at 640 µM (in experiment [1] (0.64 mM compound); at CMP-KDO synthetase (CKS) (0.64 mM compound)) was 98% in each case. Moreover, at CMP-KDO synthetase (CKS) (2.54 mM compound), the inhibition at 2540 µM was 99%. For the same compound, the inhibition at 10160 µM on CMP-KDO synthetase (CKS) (10.16 mM compound) was 98%.

(Values after patent EP0233441A1, “New enzyme inhibitor” (Astra Läkemedel Aktiebolag, priority 1985, dated 1987).)
